# Patent US9006442B2, “Cannabinoid receptor modulators” (Lupin Limited, priority 2011, dated 2015)
# Read-outs that look alike come from different tables or passages of the source.
# How the values were obtained:
# hCB2 = hCB2 (Homo sapiens, UniProt P34972); assay: cAMP determination in functional hCB2-CHO stable cells (HTRF); type: cell-based
# Protocol: In-Vitro Assay Method for Determination of cAMP in Functional hCB2—CHO Stable Cells:
# Recombinant CHO-hCB2 cells (procured from Perkin Elmer Inc. USA) were propagated and maintained in Ham's F-12 complete medium containing 10% heat inactivated FBS (Sigma.UK) and 1× penstrep. For assay, 0.1×10^6 to 1.0×10^6 CHO-hCB2 cells were seeded in T-25 flask and grown to mid-log phase in culture media without antibiotics for 2-3 days. […] The test is performed in 96^1/2 area black well plates. For agonist testing, 20 μl cells/well were mixed with 20 μl of sample and 10 μl of forskolin (with final concentration of 10 μM) and incubated for 20 to 40 min at room temperature in incubator. The plate was then processed for the cAMP determination using cAMP Femto-2 HTRF kit (Cisbio, Germany) as per the manual.
# The concentration of compound required to stimulate a half-maximal response (EC50) was determined using the GraphPad Prism software (version 5).
# human CB1 = target: T1, human CB1 (Homo sapiens, UniProt P21554); assay: cAMP determination in functional hCB1-HEK stable cells (HTRF); type: cell-based
# T1 construct: expressed in transfected cells
# Protocol: In-Vitro Assay Method for Determination of cAMP in Functional hCB1—HEK Stable Cells:
# U.S.A), 400 μg/ml of G418 and lx penstrep. For assay, 0.6-1.0×10^6 hCB1-HEK cells were seeded in T-25 flask and grown to mid-log phase in complete culture medium as mentioned above for 2-3 days. One day prior to assay, cell monolayer was washed once with PBS (pH.7.4) and then serum starved for overnight in DMEM medium containing 0.2% bovine serum albumin (devoid of antibiotics, FBS and penstrep). […] The test is performed in 96^1/2 area black well plates. For agonist testing, 20 μl cells/well were mixed with 20 μl of compound and 10 μl of forskolin (with final concentration of 10 μM) and incubated for 40 min at 25° C. incubator. The plates were then processed for cAMP determination using cAMP Femto-2 HTRF kit (Cisbio, Germany) as per the kit manual.
# rats [1] = assay: FCA (Freund's Complete Adjuvant)-induced inflammatory hyperalgesia, paw withdrawal threshold, Dynamic plantar aesthesiometer; type: in vivo; details: mechanical hyperalgesia 3 days post-FCA
# Protocol: FCA (Freund's Complete Adjuvant)—Induced Inflammatory Hyperalgesia:
# Freund's Complete Adjuvant (FCA), containing heat killed Mycobacterium tuberculosis (2 mg/ml) in incomplete Freund's adjuvant, injected (50 μl) into the plantar region of the paw of rats induces an inflammatory pain. Mechanical hyperalgesia (3 days post-FCA) was assessed by measuring hind paw withdrawal thresholds with Dynamic planter aesthesiometer.
# rats [2] = assay: FCA-induced inflammatory allodynia, paw withdrawal threshold, von Frey filaments; type: in vivo; details: mechanical allodynia 7 days after FCA injection, dose 10 mg/kg
# Protocol: FCA (Freund's Complete Adjuvant)—Induced Inflammatory Allodynia:
# An emulsion of Freund's Complete Adjuvant (FCA), containing heat killed Mycobacterium tuberculosis (4 mg/ml) in incomplete Freund's adjuvant and saline (1:1) at a final concentration of 2 mg/ml, when injected (150 μl) into the plantar region of the paw of rats induces an inflammatory pain. Mechanical allodynia (7 days after injection) was assessed by measuring hind paw withdrawal thresholds with von Frey filaments. The 50% paw withdrawal threshold was determined using up and down method of Dixon and as per the Chaplan method.
# rats [3] = assay: Chronic constriction injury (CCI)-induced neuropathic pain (Bennett's model), mechanical allodynia, von Frey filaments; type: in vivo; details: CCI of sciatic nerve, mechanical allodynia after 10-15 days, dose 10 mg/kg
# Protocol: Chronic Constriction Injury (CCI)—Induced Neuropathic Pain (Bennett's Model):
# Chronic constriction injury (CCI) of sciatic nerve in rats induces mechanical allodynia in this Bennet's neuropathic pain model. Rats were anesthetized using ketamine/xylazine (50/5 mg/kg, i.p.) and the left sciatic nerve was exposed at mid thigh level through a small incision. Four loose ligatures of 4-0 chromic cat gut (Ethicon—Johnson & Johnson) at 1 mm space were placed around the sciatic nerve after the bifurcation of common sciatic nerve. After 10-15 days, mechanical allodynia was assessed by measuring hind paw withdrawal thresholds with von Frey filaments. The 50% paw withdrawal threshold was determined using up and down method of Dixon and as per the Chaplan method.
# [4] = CHO-hCB2 cells, cAMP, forskolin 10 μM, agonist testing, read-out: EC50 Range
# hCB2, sequence (P34972 whole entry): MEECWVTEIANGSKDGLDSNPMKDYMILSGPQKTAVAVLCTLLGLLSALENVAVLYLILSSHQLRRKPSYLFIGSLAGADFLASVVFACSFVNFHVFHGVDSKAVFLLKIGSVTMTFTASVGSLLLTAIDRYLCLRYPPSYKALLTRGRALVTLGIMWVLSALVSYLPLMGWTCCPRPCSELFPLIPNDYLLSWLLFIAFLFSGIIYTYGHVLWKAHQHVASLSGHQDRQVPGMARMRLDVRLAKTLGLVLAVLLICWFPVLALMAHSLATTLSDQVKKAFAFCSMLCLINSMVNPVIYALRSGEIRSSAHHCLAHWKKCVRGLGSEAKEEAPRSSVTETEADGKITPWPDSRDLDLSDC
# T1 sequence (P21554 whole entry): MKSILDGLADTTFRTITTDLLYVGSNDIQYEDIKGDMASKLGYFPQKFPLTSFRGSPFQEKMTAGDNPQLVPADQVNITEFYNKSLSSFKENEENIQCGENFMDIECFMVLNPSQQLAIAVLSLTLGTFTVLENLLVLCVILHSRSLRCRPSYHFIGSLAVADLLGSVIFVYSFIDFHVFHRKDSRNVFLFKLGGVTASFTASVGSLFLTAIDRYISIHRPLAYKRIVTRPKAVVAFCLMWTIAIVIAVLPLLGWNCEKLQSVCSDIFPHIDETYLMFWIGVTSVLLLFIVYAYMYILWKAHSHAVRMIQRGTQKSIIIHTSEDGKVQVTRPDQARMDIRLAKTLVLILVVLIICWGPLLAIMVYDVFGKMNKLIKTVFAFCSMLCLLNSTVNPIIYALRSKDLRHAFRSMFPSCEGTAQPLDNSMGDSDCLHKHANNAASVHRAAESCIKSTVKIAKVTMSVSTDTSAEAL
EC50 (hCB2; [4]) [nM],Structure (SMILES),EC50 (hCB2) [nM],EC50 (human CB1) [nM],other results
,"Cc1cccc2c(Nc3cccc(Cl)c3)ncc(C(=O)N3CCOCC3)c12 [Example-1, (1-((3-Chlorophenyl)amino)-5-methylisoquinolin-4-yl)(morpholino)methanone]",< 10,> 100,
,"Cc1cccc2c(Nc3cccc(C(F)(F)F)c3)ncc(C(=O)N3CCOCC3)c12 [Example-4, (5-Methyl-1-((3-(trifluoromethyl)phenyl)amino)isoquinolin-4-yl)(morpholino)methanone]",< 10,,"% Improvement (MEAN ± S.E.M.) in Paw withdrawal Threshold, 1 h (rats [1]; dose 10 mg/kg): 60.9 ± 12 %; % Improvement (MEAN ± S.E.M.) in Paw withdrawal Threshold, 2 h (rats [1]; dose 10 mg/kg): 42.9 ± 8.7 %; % Improvement (MEAN ± S.E.M.) in Paw withdrawal Threshold, 4 h (rats [1]; dose 10 mg/kg): 43.9 ± 17.4 %"
,"Cc1cccc2c(Nc3cccc(C(F)F)c3)ncc(C(=O)N3CCOCC3)c12 [Example-13, (1-(((3-Difluoromethyl)phenyl)amino)-5-methylisoquinolin-4-yl)(morpholino)methanone]",< 10,< 100,
,"Cc1cccc2c(Nc3cccc(Cl)c3)ncc(C(=O)N3CCCCC3)c12 [Example-22, (1-((3-Chlorophenyl)amino)-5-methylisoquinolin-4-yl)(piperidin-1-yl)methanone]",< 10,,"% Improvement (MEAN ± S.E.M.) in Paw withdrawal Threshold, 1 h (rats [2]): 17.7 ± 7.1%; % Improvement (MEAN ± S.E.M.) in Paw withdrawal Threshold, 2 h (rats [2]): 30.7 ± 8.8 %; % Improvement (MEAN ± S.E.M.) in Paw withdrawal Threshold, 1 h (rats [3]): 61.8 ± 10.1 %; % Improvement (MEAN ± S.E.M.) in Paw withdrawal Threshold, 2 h (rats [3]): 70.2 ± 9.5 %"
,"Cc1cccc2c(Nc3cccc(Cl)c3)ncc(C(=O)N3CC4CC(C3)O4)c12 [Example-39, 6-Oxa-3-azabicyclo[3.1.1]heptan-3-yl(1-((3-chlorophenyl)amino)-5-methylisoquinolin-4-yl)methanone]",< 10,,"% Improvement (MEAN ± S.E.M.) in Paw withdrawal Threshold, 1 h (rats [2]): 2.10 ± 1.87%; % Improvement (MEAN ± S.E.M.) in Paw withdrawal Threshold, 2 h (rats [2]): 10.22 ± 4.68%; % Improvement (MEAN ± S.E.M.) in Paw withdrawal Threshold, 1 h (rats [3]): 11.6 ± 12.8%; % Improvement (MEAN ± S.E.M.) in Paw withdrawal Threshold, 2 h (rats [3]): 0.7 ± 1.1%"
,"Cc1cccc2c(Oc3ccc(F)cc3Cl)ncc(C(=O)N3CCOCC3)c12 [Example-56, (1-(2-Chloro-4-fluorophenoxy)-5-methylisoquinolin-4-yl)(morpholino)methanone]",,> 100,
,Cc1cccc2c(Nc3cccc(C(F)(F)F)c3)ccc(C(=O)N3CCOCC3)c12 [Example-134],< 10,,"% Improvement (MEAN ± S.E.M.) in Paw withdrawal Threshold, 1 h (rats [1]; dose 10 mg/kg): 6.8 ± 8.8%; % Improvement (MEAN ± S.E.M.) in Paw withdrawal Threshold, 2 h (rats [1]; dose 10 mg/kg): 25.8 ± 5.2%; % Improvement (MEAN ± S.E.M.) in Paw withdrawal Threshold, 4 h (rats [1]; dose 10 mg/kg): −1.6 ± 8.0%"
,Cc1cccc2c(Nc3cccc(C(F)(F)F)c3)ccc(C(=O)N3CCCCC3)c12 [Example-143],< 10,,"% Improvement (MEAN ± S.E.M.) in Paw withdrawal Threshold, 1 h (rats [1]; dose 10 mg/kg): 16.7 ± 15.0%; % Improvement (MEAN ± S.E.M.) in Paw withdrawal Threshold, 2 h (rats [1]; dose 10 mg/kg): 25.1 ± 17.8%; % Improvement (MEAN ± S.E.M.) in Paw withdrawal Threshold, 4 h (rats [1]; dose 10 mg/kg): 18.3 ± 18.5%"
,"Cc1c(Cl)cccc1Nc1ccc(C(=O)N2CCOCC2)c2c(C)cccc12 [Example-155, (4-((3-Chloro-2-methylphenyl)amino)-8-methylnaphthalen-1-yl)(morpholino)methanone]",< 10,< 100,
,"O=C(c1ccc(Nc2cccc(Cl)c2)c2ccccc12)N1CCOCC1 [Example-179, (4-((3-Chlorophenyl)amino)naphthalen-1-yl)(morpholino)methanone]",< 10,> 100,
,"O=C(c1ccc(Nc2cccc(F)c2)c2ccccc12)N1CCOCC1 [Example-183, (4-((3-Fluorophenyl)amino)naphthalen-1-yl)(morpholino)methanone]",10 to 1000,> 100,
,"O=C(c1cnc(Nc2cccc(Cl)c2)c2cccc(Cl)c12)N1CCCCC1 [Example-218, (5-Chloro-1-((3-chlorophenyl)amino)isoquinolin-4-yl)(piperidin-1-yl)methanone]",,< 100,
,"Cc1cccc2c(Nc3cc(F)cc(F)c3)ncc(CN3CCOCC3)c12 [Example-225, N-(3,5-difluorophenyI)-5-methyl-4-(morpholinomethyl)isoquinolin-1-amine]",,< 100,
,"Cc1cccc2c(Nc3cccc(Cl)c3)ncc(C(=O)N3CCC(F)(F)CC3)c12 [Example-241, (1-((3-Chlorophenyl)amino)-5-methylisoquinolin-4-yl)(4,4-difluoropiperidin-1-yl)methanone]",,< 100,
< 10,"Cc1cccc2c(Nc3cccc(C(F)(F)F)c3F)ncc(C(=O)N(C)C)c12 [Example-257, 1-((2-Fluoro-3-(trifluoromethyl)phenyl)amino)-N,N,5-trimethyl isoquinolin-4-carboxamide]",,,"% Improvement (MEAN ± S.E.M.) in Paw withdrawal Threshold, 1 h (rats [1]; dose 30 mg/kg): 44.4 ± 23.3%; % Improvement (MEAN ± S.E.M.) in Paw withdrawal Threshold, 2 h (rats [1]; dose 30 mg/kg): 52.8 ± 19.1%"
,"Cc1c(Cl)cccc1Nc1ncc(C(=O)N(C)C(C)C)c2c(Cl)cccc12 [compound 384, 5-Chloro-1-((3-chloro-2-methylphenyl)amino)-N-isopropyl-N-methylisoquinolin-4-carboxamide]",10 to 1000,,
< 10,"COC(=O)c1cccc(Nc2ccc(C(=O)N3CCCCC3)c3c(C)cccc23)c1 [compound 407, Methyl 3-((5-methyl-4-(piperidin-1-carbonyl)naphthalen-1-yl)amino) benzoate]",,,
< 10,"COC(=O)c1cccc(Nc2ccc(C(=O)N3CCOCC3)c3c(C)cccc23)c1 [compound 408, Methyl 3-((5-methyl-4-(morpholin-4-carbonyl)naphthalen-1-yl)amino) benzoate]",,,
< 10,"COC(=O)c1cccc(Nc2ccc(C(=O)N3CCCCC3)c3c(C)cccc23)c1C [compound 409, Methyl 2-methyl-3-((5-methyl-4-(piperidin-1-carbonyl)naphthalen-1-yl)amino)benzoate]",,,
< 10,"COC(=O)c1cccc(Nc2ccc(C(=O)N3CCOCC3)c3c(C)cccc23)c1C [compound 410, Methyl 2-methyl-3-((5-methyl-4-(morpholin-4-carbonyl)naphthalen-1-yl)amino)benzoate]",,,
< 10,"CCN(CC)C(=O)c1ccc(Nc2cccc(C(=O)OC)c2C)c2cccc(C)c12 [compound 411, Methyl 2-methyl-3-((5-methyl-4-(diethylcarbamoyl)naphthalen-1-yl)amino)benzoate]",,,
,"CCN(C)C(=O)c1ccc(Nc2cccc(C(F)(F)F)c2F)c2cccc(C)c12 [compound 413, N-Ethyl-4-((2-fluoro-3-(trifluoromethyl)phenyl)amino)-N,8-dimethyl-1-naphthamide]",< 10,,
< 10,"Cc1c(Nc2ccc(C(=O)N(C)C)c3c(C)cccc23)cccc1C(F)(F)F [compound 427, N,N,8-Trimethyl-4-((2-methyl-3-(trifluoromethyl)phenyl)amino)-1-naphthamide]",,,
< 10,"CCN(C)C(=O)c1ccc(Nc2cccc(C(F)(F)F)c2C)c2cccc(C)c12 [compound 452, N-Ethyl-N,8-dimethyl-4-((2-methyl-3-(trifluoromethyl)phenyl)amino)-1-naphthamide]",,,
< 10,"CCN(C)C(=O)c1ccc(Nc2cccc(C)c2C)c2cccc(C)c12 [compound 453, 4-((2,3-Dimethylphenyl)amino)-N-ethyl-N,8-dimethyl-1-naphthamide]",,,
< 10,"CCN(C)C(=O)c1ccc(Nc2cccc(Cl)c2C)c2cccc(C)c12 [compound 456, 4-((3-Chloro-2-methylphenyl)amino)-N-ethyl-N,8-dimethyl-1-naphthamide]",,,
